Laboratory results taken from US12215123B2, “Cordycepin-based derivatized compound with anti-tumor effect” (NANJING TECH UNIVERSITY, priority 2022, dated 2025).
Read-outs that look alike come from different tables or passages of the source.

Columns and labels:
[1] = system: small cell lung cancer cell line H69; experiment: MTT proliferation, small cell lung cancer cell line H69; format: cell-based; details: read-out: IC50 (μM) of compounds in small cell lung cancer cells, H69
Method in brief: (§1)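 MTT assay: cells seeded at 2 to 4×10^4 cells/mL, grown 24 h, then exposed to compound for 72 h. MTT added for 4 h, formazan dissolved in DMSO and absorbance read at 570 nm; IC50 taken from the S-shaped concentration-inhibition curve.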

[2] = system: small cell lung cancer cell line H446; experiment: MTT proliferation, small cell lung cancer cell line H446; format: cell-based; details: read-out: IC50 (μM) of compounds in small cell lung cancer cells, H446
Method in brief: as §1

[3] = system: pancreatic cancer Pan02-luc cells; experiment: Mouse transplanted pancreatic cancer model, survival; format: in vivo, C57BL/6j nude mice; details: intragastric 500 ug/time/animal every day for 24 days, control 41 days
Method: The feeding of the mouse model in the drug evaluation follows that: mice are fed and treated in a laminar flow cabinet, with 5 nude mice in each cage, drinking water and feedstuffs are added once every 3 days, and paddings are replaced once a week; a number of mice kept in each cage is no more than 5, the mice in separate cages are kept in groups as far as possible, and the mice should not be kept in a single cage; the animal management must conform to the relevant national standards on animal feeding management, and the behavioral needs of animals should be concerned at the same time to avoid unnecessary stress; the normal physiological and behavioral needs of animals, such as defecation, urination, constant body temperature maintenance, normal activities, posture adjustment and reproduction are met; good ventilation and dry animals are kept; the animals can access to drinking water and food at will, and supplementation, replacement and cleaning operations are easily carried out; a solid and safe environment is provided to avoid accidents of animals, such as escaping or limb trapping in a gap; the animals are avoided from being damaged by sharp edges or protrusions; and the animals are not disturbed during observation. […]

[4] = system: small cell lung cancer cell line H1048; experiment: MTT proliferation, small cell lung cancer cell line H1048; format: cell-based; details: read-out: IC50 (μM) of compounds in small cell lung cancer cells, H1048
Method in brief: as §1

[5] = system: gastric cancer cell line AGS; experiment: MTT proliferation, gastric cancer cell line AGS; format: cell-based; details: read-out: IC50 (μM) in gastric cancer cells, AGS
Method in brief: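 Tumour cells in exponential growth were trypsinised, seeded at 2 to 4×10^4 cells/mL, cultured 24 hours, then exposed to compounds for 72 hours. MTT was added for 4 hours, formazan dissolved in DMSO and absorbance read at 570 nm. IC50 came from an S curve of inhibition rate against concentration.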

[6] = system: wild-type AB-line zebrafish; details: 3 dpf to 5 dpf, 35° C.; survival rate>90% and teratogenicity<20%
Method: The zebrafish model is a wild-type AB-line zebrafish from College of Biotechnology and Pharmaceutical Engineering, Nanjing Tech University, and is carried out by a natural mating reproduction method, with 30 zebrafish of 2 dpf in each experimental group. The zebrafish is fed in fish culture water at 28° C. (water quality:200 mg of instant sea salt and CaCO3 are added into 1 L of reverse osmosis water with a conductivity of 480 uS/cm to 510 uS/cm, a pH value of 6.9 to 7.2, and a hardness of 53.7 mg/L to 71.6 mg/L), and the feeding management meets the requirements of international AAALAC certification.
240 3 dpf wild-type AB-line zebrafish were randomly selected in an 8-well plate, with 30 zebrafish in each well, and 3 mL of fish culture water in each well, the cordycepin was diluted according to a maximum lethal dose, dissolved in DMSO, and added into each well according to a concentration gradient (the maximum lethal dose was diluted by 100 times, in which 8 concentration gradient values were taken for the experiment), and meanwhile, a normal control group, a solvent control group G (5% glucose) and a solvent control group D (DMSO) were set. During the experiment, the zebrafish in each group were cultured at 35° C., after the zebrafish were treated to be 5 dpf with a sample to be tested, lethal and developmental malformation conditions of the zebrafish in different doses were investigated respectively, and a maximum tolerance dose (MTD) of the sample to be tested to normal zebrafish was determined under a concentration when survival rate>90% and teratogenicity<20%.

Row | SMILES | IC50 ([1]; MTT, 72 hours, H69) [µM] | IC50 ([2]; Homo sapiens, NCI-H446, 72 h, MTT, 72 hours, H446) [µM] | IC50 ([2]; MTT, 72 hours, H446) [µM] | survival time of the tumor-bearing mice (median survival time) [3] [days] | IC50 ([4]; Homo sapiens, NCI-H1048, 72 h, MTT, 72 hours, H1048) [µM] | IC50 ([4]; MTT, 72 hours, H1048) [µM] | IC50 ([5]; MTT, 72 hours, AGS) [µM] | Maximum tolerance dose (MTD) in zebrafish model [6] [µM] | IC50 ([1]; 72 h) [µM] | IC50 ([2]; Homo sapiens, NCI-H446, 72 h) [µM] | IC50 ([4]; Homo sapiens, NCI-H1048, 72 h) [µM] | IC50 ([5]; 72 h) [µM]
1 | Nc1ncnc2c1ncn2[C@@H]1O[C@H](CO)C[C@H]1O [Cordycepin, 3′-deoxyadenosine] | 63.1 | > 100 | 123 | 52 | > 100 | 172 | 372 | 995 |  |  |  | 
2 | CC(C)OC(=O)C(C)NP(=O)(COC[C@@H]1CC(O)[C@H](n2cnc3c(NC(=O)c4ccncc4)ncnc32)O1)Oc1ccccc1 (some centres unmarked) [Compound 24, isopropyl((((4-hydroxy-5-(6-(isonicotinamide)-9H-purin-9-yl)tetrahydrofuran-2-yl)methoxy)methyl)(phenoxy)phosphoryl)alanine ester] |  |  |  | 76 |  |  |  | 5 | 25.5 | 17.2 | 24.4 | 0.13
